Source: PMC7143545, “Specific NDM-1 Inhibitor of Isoliquiritin Enhances the Activity of Meropenem against NDM-1-positive Enterobacteriaceae in vitro” (International Journal of Environmental Research and Public …, 2020)
pIC50: −log10 of the molar value.

Biological target: T1, New Delhi metallo-β-lactamase-1 (NDM-1) (Escherichia coli, UniProt E5KIY2)
T1 construct: gene blaNDM-1; His-tagged protein (pET28a), ndm-1 from E. coli ZC-YN3
Assay: nitrocefin hydrolysis inhibition assay with purified enzyme
Format: biochemical

T1 sequence (E5KIY2 29-270 limits assumed): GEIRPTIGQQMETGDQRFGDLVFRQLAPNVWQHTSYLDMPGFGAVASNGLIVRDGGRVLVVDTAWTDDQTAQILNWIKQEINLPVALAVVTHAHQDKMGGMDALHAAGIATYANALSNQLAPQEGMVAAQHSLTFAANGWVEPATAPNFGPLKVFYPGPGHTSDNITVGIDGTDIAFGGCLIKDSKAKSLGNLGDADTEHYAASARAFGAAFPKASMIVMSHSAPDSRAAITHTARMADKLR

O=C(/C=C/c1ccc(O[C@@H]2O[C@H](CO)[C@@H](O)[C@H](O)[C@H]2O)cc1)c1ccc(O)cc1O [isoliquiritin]
pIC50: 4.04
